Like-named read-outs stand apart in the source and are kept apart here.
Columns and labels:
[1] = test system: Acinetobacter baumannii (ATCC 19606); assay: Bacterial proliferation assay, A. baumannii; format: cell-based
From the text: (§1) Bacterial Strains: Enterococcus faecium—(Orla-Jensen) Schleifer and Kilpper-Balz strain NCTC 7171 (ATCC 19434); Drug sensitive Staphylococcus aureus—Rosenbranch strain Seattle 1945 (ATCC 25923); Methicillin resistant S. aureus (MRSA)—Rosenbach strain HPV107 (ATCC BAA-44); Klebsiella Pneumonia—(Schroeter) Trevisan strain NCTC 9633 (ATCC 13883); Acinetobacter baumannii—Bouvet and Grimont strain 2208 (ATCC 19606); Pseudomonas aeruginosa—(Schroeter) Migula strain NCTC 10332 (ATCC 10145); Enterobacter cloacae—E. cloacae, subsp. cloacae (Jordan) Hormaeche and Edwards strain CDC 442-68 (ATCC 13047).
(§2) Growth Media: All bacteria were grown in Brain Heart Infusion (BHI) broth/agar (Becton, Dickinson and Company). All liquid cultures were grown in BHI media supplemented with 25 mg/L Ca^2+ and 12.5 mg/L Mg^2+ to mimic free physiological concentrations of these cations. A 10 mg/mL Ca^2+ stock solution was prepared by dissolving 3.68 g of CaCl2.2H2O in 100 mL of deionized water, and a 10 mg/mL Mg^2+ stock solution was prepared by dissolving 8.36 g of MgCl2.6H2O in 100 mL deionized water. Both stock solutions were filter-sterilized using 0.2 μm pore size cellulose-acetate filters. 2.5 mL of the sterile 10 mg/mL Ca^2+ stock and 1.25 mL of the sterile 10 mg/mL Mg^2+ stock solutions were added per 1 L of autoclaved BHI medium to obtain 25 mg/L Ca^2+ and 12.5 mg/L Mg^2+ ions, respectively.
(§3) General Assay Protocol: Stock bacterial cultures were streaked onto BHI agar plates and grown overnight at 37° C. Fresh aliquots of broth were inoculated with single bacterial colonies and the cultures were grown overnight at 37° C. with shaking (240 rpm) in cation adjusted BHI media. The following morning, the overnight cultures were sub-cultured (1:5 dilution) into fresh aliquots of cation adjusted BHI media and grown at 37° C. for 1-2 hours with shaking. After 2 h, cultures were diluted into fresh media to achieve final OD600 readings of 0.017. Aliquots of these diluted cultures (30 μL) were added to clear, flat-bottom, 384-well polystyrene plates that were stamped with 0.5 μL of test compounds in 20 μL media. […] Plates were sealed with “Breathe Easy” oxygen permeable membranes (Diversified Biotech) and left to incubate at 37° C. without shaking (stagnant assay). OD600 nm readings were taken at either 6-8 h (S. aureus, MRSA, K. pneumonia, E. cloacae, and P. aeruginosa) or 24 h (E. faecium and A. baumannii). A second set of baseline control plates were prepared analogously, but without any bacteria added, to correct for possible compound absorbance and/or precipitation. Plates were then read at 600 nm using a Molecular Devices SpectraMax Plus384 microplate reader. […] Results presented represent the averages of EC50 values obtained from at quadriplicate (duplicate of duplicate) replicates.

[2] = test system: Methicillin resistant S. aureus (MRSA) (ATCC BAA-44); assay: Bacterial proliferation assay, MRSA; format: cell-based, Staphylococcus aureus; details: Staphylococcus aureus
From the text: as §1, §2, §3

native MDH = target: T1, native MDH (Sus scrofa, UniProt P00346); assay: Counter-screen for inhibition of native MDH enzymatic activity; format: biochemical, pig; details: for inhibition of native MDH enzymatic activity (in words): false-positive counter-screen
T1 construct: soluble pig heart MDH from Roche, product #10127248001; purchased Roche 10127248001; host or cells: pig heart
T1 sequence (P00346 25-338): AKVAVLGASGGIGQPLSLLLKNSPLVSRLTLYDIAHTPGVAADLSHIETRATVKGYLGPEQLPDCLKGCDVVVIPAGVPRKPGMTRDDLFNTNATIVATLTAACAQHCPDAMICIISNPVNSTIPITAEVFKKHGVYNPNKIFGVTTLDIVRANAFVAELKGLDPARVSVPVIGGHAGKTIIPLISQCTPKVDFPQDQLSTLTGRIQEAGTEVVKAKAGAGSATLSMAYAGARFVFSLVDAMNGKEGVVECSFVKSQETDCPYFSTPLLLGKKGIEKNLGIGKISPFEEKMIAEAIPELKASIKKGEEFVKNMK
Protocol: Reagent Preparations & Assay Protocol: This assay was performed as described above for the GroEL/ES-dMDH refolding assay; however, the assay protocol differed in the sequence of compound addition to the assay plates. The refolding reactions were allowed to proceed for 45 min at 37° C. in the absence of test compounds (complete refolding of MDH occurs), then quenched with the EDTA stock. Compounds were then pin-transferred into the plates after the EDTA quenching step; thus, compounds effects are only possible by inhibiting the fully-refolded MDH reporter substrate. […] A340 nm measurements were recorded at 0.5 minutes (start point) and at successive time points until the amount of NADH consumed reached ˜90% (end point, generally between 20-35 minutes). Compounds were tested in 8-point, 3-fold dilution series (62.5 μM to 29 nM during the reporter reaction) in clear, flat-bottom 384-well microtiter plates. DMSO was used as a negative control, and previously discovered native MDH inhibitors were used as positive controls. […] Results presented represent the averages of IC50 values obtained from at least quadriplicate (duplicate of duplicate) replicates.

[3] = Kidney cell viability assay (Alamar Blue); details: human
Protocol: HEK 293 cells were maintained in MEM medium (Corning Cellgro, 10-009 CV) supplemented with 10% FBS (Sigma, F2242). […] Cells at 80% confluence were harvested and diluted in growth medium, then 45 μL of the THLE-3 cells (1,500 cells/well) or HEK 293 cells (1,500 cells/well) were dispensed per well, and plates were sealed with “Breathe Easy” oxygen permeable membranes (Diversified Biotech) and incubated at 37° C., 5% CO2, for 24 h.

[4] = test system: Klebsiella Pneumonia (ATCC 13883); assay: Bacterial proliferation assay, K. pneumoniae; format: cell-based
From the text: as §1, §2, §3

[5] = ATCC19606, 24 h, read-out: Bacterial Proliferation EC50 A. baumannii
[6] = ATCC19606, read-out: log(EC50) Bacterial Proliferation Assay A. baumannii (converted)
[7] = read-out: Bacterial Proliferation EC50 S. aureus Resistant
[8] = read-out: log(EC50) Bacterial Proliferation Assay S. aureus Resistant (converted)
[9] = ATCC13883, read-out: Bacterial Proliferation EC50 K. pneumoniae
[10] = ATCC13883, read-out: log(EC50) Bacterial Proliferation Assay K. pneumoniae (converted)
[11] = ATCC19606, OD600 at 24 h, read-out: Bacterial Proliferation EC50 A. baumannii
[12] = ATCC19606, log of EC50 (μM scale), with standard deviation, read-out: log(EC50) Bacterial Proliferation Assay A. baumannii (converted)
[13] = MRSA, log of EC50 (μM scale), with standard deviation, read-out: log(EC50) Bacterial Proliferation Assay S. aureus Resistant (converted)
[14] = log of IC50 (μM scale), with standard deviation, read-out: log(IC50) Native MDH Reporter (converted)
[15] = read-out: Biochemical Assay IC50 Native MDH Reporter
[16] = ATCC13883, OD600 at 6-8 h, read-out: Bacterial Proliferation EC50 K. pneumoniae
[17] = ATCC13883, log of EC50 (μM scale), with standard deviation, read-out: log(EC50) Bacterial Proliferation Assay K. pneumoniae (converted)
[18] = MRSA, OD600 at 6-8 h, read-out: Bacterial Proliferation EC50 S. aureus Resistant

SMILES	EC50 [1, 5] [µM]	EC50 [1, 6] [µM]	EC50 [2, 7] [µM]	EC50 [2, 8] [µM]	IC50 (native MDH; Biochemical Assay IC50 Native MDH Reporter) [µM]	IC50 (native MDH; log(IC50) Native MDH Reporter, log of IC50 (μM scale), with standard deviation) [µM]	CC50 at 48 h [3] [µM]	EC50 [4, 9] [µM]	EC50 [4, 10] [µM]	EC50 [1, 11] [µM]	EC50 [1, 12] [µM]	EC50 [2, 13] [µM]	IC50 (native MDH; [14]) [µM]	IC50 (native MDH; [15]) [µM]	EC50 [4, 16] [µM]	EC50 [4, 17] [µM]	EC50 [2, 18] [µM]	inhibition of native MDH enzymatic activity (in words) (native MDH)	log(IC50) Native MDH Reporter (native MDH; log of IC50 (μM scale), with standard deviation)
O=C(Nc1ccccc1)c1ccccc1O [Compound 16, 2-Hydroxy-N-phenylbenzamide]	> 100	> 100	51	51.3	> 63	> 63.1	> 100	> 100	> 100	–	–	–	–	–	–	–	–	–	–
O=C(Nc1ccc(Sc2nc3ccccc3s2)c(Cl)c1)c1cc(Br)cc(Br)c1 [Compound 17, N-(4-(Benzo[d]thiazol-2-ylthio)-3-chlorophenyl)-3,5-dibromobenzamide]	–	–	–	–	–	–	> 100	–	–	> 100	> 100	> 100	> 63.1	> 63	> 100	> 100	–	–	–
COc1c(Br)cccc1C(=O)Nc1ccc(Sc2nc3ccccc3s2)c(Cl)c1 [Compound 30, N-(4-(Benzo[d]thiazol-2-ylthio)-3-chlorophenyl)-3-bromo-2-methoxybenzamide]	–	–	–	–	–	–	> 100	–	–	> 100	> 100	> 100	> 63.1	> 63	> 100	> 100	–	–	–
O=C(Nc1cccc(Cl)c1)c1cccc(Br)c1 [Compound 24, 3-Bromo-N-(3-chlorophenyl)benzamide]	–	–	–	–	–	–	51.3	–	–	> 100	> 100	67.6	> 63.1	> 63	> 100	> 100	68	–	–
COc1ccc(Br)cc1C(=O)Nc1cccc(Cl)c1 [Compound 39, 5-Bromo-N-(3-chlorophenyl)-2-methoxybenzamide]	–	–	–	–	–	–	> 100	–	–	> 100	> 100	> 100	> 63.1	> 63	> 100	> 100	–	–	–
O=C(Nc1ccc(Sc2nc3ccccc3s2)cc1)c1cc(Br)cc(Br)c1O [Compound 5, N-(4-(Benzo[d]thiazol-2-ylthio)phenyl)-3,5-dibromo-2-hydroxybenzamide]	> 100	> 100	0.52	0.525	–	–	–	> 100	> 100	–	–	–	–	–	–	–	–	inhibit native MDH	0.92 ± 0.21
O=C(Nc1ccc(Sc2nc3ccccc3s2)c(Cl)c1)c1ccccc1O [Compound 4, N-(4-(Benzo[d]thiazol-2-ylthio)-3-chlorophenyl)-2-hydroxybenzamide]	–	–	–	–	–	–	–	–	–	> 100	> 100	0.447	> 63.1	> 63	> 100	> 100	0.45	–	–
O=C(Nc1cccc(Cl)c1)c1cc(Br)ccc1O [Compound 11, 5-Bromo-N-(3-chlorophenyl)-2-hydroxybenzamide]	> 100	> 100	0.53	0.537	–	–	–	> 100	> 100	–	–	–	> 63.1	> 63	–	–	–	–	–
O=C(Nc1ccc(Sc2nc3ccccc3s2)cc1)c1cc(Br)ccc1O [Compound 7, N-(4-(Benzo[d]thiazol-2-ylthio)phenyl)-5-bromo-2-hydroxybenzamide]	> 100	> 100	0.14	0.141	–	–	–	> 100	> 100	–	–	–	> 63.1	> 63	–	–	–	inactive against the reporter enzymes	–
O=C(Nc1ccccc1)c1cc(Br)ccc1O [Compound 15, 5-Bromo-2-hydroxy-N-phenylbenzamide]	–	–	–	–	–	–	–	–	–	> 100	> 100	4.07	> 63.1	> 63	78	77.6	4.1	–	–
